Each structure is given as a SMILES string. Read-outs that look alike come from different tables or passages of the source.

The results in this text go back to patent US9510598B2, “Nitrogen-containing heterocyclic compounds for plant disease control” (BAYER CROPSCIENCE AG, priority 2012, dated 2016).

Series [1] is classed as physicochemical.
The next series relates to Puccinia recondita. Nature of the series: In vivo preventive test on Puccinia recondita (brown rust on wheat). The settings on record: 500 ppm; wheat plants sprayed 24 hours before contamination; grading 10 days after contamination vs control plants. The protocol: Wheat plants (“Scipion” variety), sown in starter cups on a 50/50 peat soil-pozzolana substrate and grown at 22° C. (12 h)/20° C. (12 h), are treated at the 1-leaf stage (10 cm height) by spraying with the active ingredient prepared as described above. Plants, used as controls, are treated with the mixture of acetone/tween/DMSO/water not containing the active material. After 24 hours, the plants are contaminated by spraying the leaves with an aqueous suspension of Puccinia recondita spores (100 000 spores per ml).

For a further series, the system named is Uromyces appendiculatus. Nature of the series: In vivo preventive test on Uromyces appendiculatus (bean rust). The settings on record: 500 ppm; bean plants sprayed 24 hours before contamination; grading 10 days after contamination vs control plants. The protocol:
Bean plants (“Saxa” variety), sown in starter cups on a 50/50 peat soil-pozzolana substrate and grown at 24° C., are treated at the 2-leaf stage (9 cm height) by spraying with the active ingredient prepared as described above. Plants, used as controls, are treated with the mixture of acetone/tween/DMSO/water not containing the active material. After 24 hours, the plants are contaminated by spraying the leaves with an aqueous suspension of Uromyces appendiculatus spores (150 000 spores per ml).

The subject of another series is Septoria tritici. Nature of the series: In vivo preventive test on Septoria tritici (leaf spot on wheat). The following applies: 500 ppm; wheat plants sprayed 24 hours before contamination; grading 21 to 28 days after contamination vs control plants. An outline of the steps: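 Scipion wheat at 1-leaf stage sprayed with compound, controls receiving acetone/tween/DMSO/water vehicle; 24 h later leaves inoculated with Septoria tritici spores (500 000 spores per ml). Efficacy (%) graded versus control plants 21 to 28 days after contamination.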

Another series has as its system Botrytis cinerea. Nature of the series: In vivo preventive test on Botrytis cinerea (grey mould). The following applies: 500 ppm; gherkin plants sprayed 24 hours before contamination; grading 4-5 days after contamination vs control plants. In a few lines:
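Gherkin plants ("Vert petit de Paris") sprayed with compound at Z11 cotyledon stage, then inoculated 24 h later with B. cinerea spores (50 000/ml) in PDB/fructose/NH4NO3/KH2PO4 nutrient solution. Incubated at 17 °C, 80% RH; % efficacy versus solvent-treated controls graded 4–5 days after contamination.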

For another series, the system named is Sphaerotheca fuliginea. Nature of the series: In vivo preventive test on Sphaerotheca fuliginea (powdery mildew on cucurbits). The settings on record: 500 ppm; gherkin plants sprayed 24 hours before contamination; grading 12 days after contamination vs control plants. An outline of the steps: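 Preventive spray of gherkin plants at Z11 cotyledon stage, grown at 24° C; inoculation 24 hours later with Sphaerotheca fuliginea spores (100 000 spores per ml). Efficacy graded 12 days post-inoculation as % versus solvent-treated control plants.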

The subject of another series is Phytophthora infestans. Type of series: in vivo. The following applies: 500 ppm; tomato plants sprayed 24 hours before contamination; grading 5 days after contamination vs control plants.
Another series has as its system Alternaria brassicae. Nature of the series: In vivo preventive test on Alternaria brassicae (leaf spot on radish). The settings on record: 500 ppm; radish plants sprayed 24 hours before contamination; grading 5 days after contamination vs control plants. The protocol: Radish plants (“Pernod Clair” variety), sown in starter cups on a 50/50 peat soil-pozzolana substrate and grown at 17° C., are treated at the 2-leaf stage by spraying with the active ingredient prepared as described above. Plants, used as controls, are treated with the mixture of acetone/tween/DMSO/water not containing the active material. After 24 hours, the plants are contaminated by spraying the leaves with an aqueous suspension of Alternaria brassicae spores (50 000 spores per ml). The spores are collected from a 15-day-old culture. […] Grading (% of efficacy) is carried out 5 days after the contamination, in comparison with the control plants.

Setting [2] is: method [a]: HPLC/LC-MS on reversed phase at pH 2.7, 0.1% formic acid in water / acetonitrile, gradient 10% to 95% acetonitrile.
Setting [3] is: HPLC on reversed phase columns, method [a]: pH 2.7, 0.1% formic acid in water / acetonitrile, linear gradient 10% to 95% acetonitrile.
The mark [4] stands for this setting: method [a]: HPLC/LC-MS on reversed phase at pH 2.7, 0.1% formic acid in water / acetonitrile, linear gradient 10% to 95% acetonitrile.

On to `CC(C)NC(=O)C1(C)CC(c2ccc3ncc(-c4ccco4)cc3c2)=NO1` (racemic) [compound 382], for which the “log P” value in series [1] (setting [2]) was 2.77[a]. The “% of efficacy (protection)” value came to 79% in the series with Puccinia recondita and 89% with Uromyces appendiculatus.
`Cn1cc(NC(=O)C2(C)CC(c3ccc4ncc(Br)cc4c3)=NO2)cn1` (racemic) [compound 434]: the “log P” value in series [1] (setting [2]) was 2.17[a]. Also, the “% of efficacy (protection)” value in the series on Puccinia recondita came to 88%; with Septoria tritici, 100%; in the series on Uromyces appendiculatus it was 97%.
Regarding `C#Cc1cnc2ccc(C3=NOC(CC)(C(=O)NC(C)C)C3)cc2c1` (racemic) [compound 446], the “log P” value in series [1] (setting [2]) was 2.76[a]. Further, the “% of efficacy (protection)” value with Botrytis cinerea is on record as 98%; in the series on Puccinia recondita, 83%; in the series with Septoria tritici, 100%; in the series on Sphaerotheca fuliginea it was 94%.
As for `CCOCCCNC(=O)C1(C)CC(c2ccc3ncc(I)cc3c2)=NO1` (racemic) [compound 456], in series [1] (setting [2]), the “log P” value is 2.86[a]. Also, the “% of efficacy (protection)” value came to 98% in the series on Botrytis cinerea, 83% with Puccinia recondita, 100% in the series with Septoria tritici and 98% in the series on Sphaerotheca fuliginea.
`CCn1cc(CNC(=O)C2(C)CC(c3cc(Cl)c4ncc(Br)cc4c3)=NO2)c(C)n1` (racemic) [compound 548]: in series [1] (setting [3]), the “log P” value was 2.77[a]. The “% of efficacy (protection)” value amounted to 94% in the series with Botrytis cinerea, 83% in the series on Puccinia recondita, 100% in the series on Septoria tritici and 80% with Sphaerotheca fuliginea.
For the compound `C#Cc1cnc2ccc(C3=NOC(C)(C(=O)NCC4OCCc5ccccc54)C3)cc2c1` (single isomer, unassigned) [compound 262], in series [1] (setting [3]), the “log P” value is 3.13^[a]. Further, the “% of efficacy (protection)” value in the series on Botrytis cinerea is reported as 95%; in the series with Puccinia recondita, 81%.
Regarding `CCCn1cc(CNC(=O)C2(OC)CC(c3ccc4ncc(Br)cc4c3)=NO2)c(C)n1` (stereo not shown) [compound 50], the “% of efficacy (protection)” value is given as 100% in the series on Botrytis cinerea; 100% in the series on Phytophthora infestans; 88% with Puccinia recondita; 100% in the series on Septoria tritici; 100% with Sphaerotheca fuliginea.
With `CCn1cc(CNC(=O)C2(C)CC(c3ccc4ncc(OC)cc4c3)=NO2)c(C)n1` (stereo not shown) [compound 135], the “log P” value in series [1] (setting [4]) is 1.83^[a]. Further, the “% of efficacy (protection)” value in the series on Alternaria brassicae was 100%; with Puccinia recondita it was 89%; in the series on Septoria tritici it was 100%.
In the case of `CC(C)NC(=O)C1(C)CC(c2ccc3ncc(S(C)(=O)=O)cc3c2)=NO1` (stereo not shown) [compound 146], the “log P” value in series [1] (setting [4]) is 1.81^[a]. For the same compound, the “% of efficacy (protection)” value came out at 85% with Phytophthora infestans and 72% with Puccinia recondita.
In the case of `CC(NC(=O)C1(C)CC(c2ccc3ncc(Br)cc3c2)=NO1)c1ccccn1` (stereo not shown) [compound 205], in series [1] (setting [4]), the “log P” value is 2.14^[a]. The “% of efficacy (protection)” value turned out to be 84% in the series with Botrytis cinerea, 100% in the series with Septoria tritici, 75% in the series on Sphaerotheca fuliginea and 70% with Uromyces appendiculatus.
Regarding `C#CC1(NC(=O)C2(C)CC(c3ccc4ncc(Br)cc4c3)=NO2)CCCCC1` (stereo not shown) [compound 237], the “log P” value in series [1] (setting [3]) was 3.9^[a]. Also, the figures for the “% of efficacy (protection)” value in the series on Alternaria brassicae and in the series on Uromyces appendiculatus were 71% and 80%, respectively.
In the case of `CCn1cc(CNC(=O)C2(C)CC(c3ccc4ncc(C)cc4c3)=NO2)c(C)n1` (stereo not shown) [compound 257], in series [1] (setting [3]), the “log P” value is 1.46^[a]. For the same compound, the “% of efficacy (protection)” value worked out at 100% in the series with Phytophthora infestans and 81% in the series with Puccinia recondita.
As for `CCn1cc(CNC(=O)C2(C)CC(c3ccc4ncc(-c5cncnc5)cc4c3)=NO2)c(C)n1` (stereo not shown) [compound 265], the “log P” value in series [1] (setting [3]) is 1.62^[a]. In addition, the “% of efficacy (protection)” value was 88% with Puccinia recondita and 96% with Uromyces appendiculatus.
As for `COCC(COC)NC(=O)C1(C)CC(c2ccc3ncc(Br)cc3c2)=NO1` (stereo not shown) [compound 305], the “log P” value in series [1] (setting [3]) is 2.56[a]. Further, in the series with Uromyces appendiculatus, the “% of efficacy (protection)” value is 80%.
With `C/C(=N\O)C1(C(=O)NC(C)C)CC(c2ccc3ncc(Br)cc3c2)=NO1` (stereo not shown) [compound 420], the “log P” value in series [1] (setting [2]) is 2.58[a]. Also, the “% of efficacy (protection)” value is recorded as 94% in the series on Puccinia recondita and 97% in the series with Uromyces appendiculatus.
Turning to `CC(C)NC(=O)C1(C)ON=C(c2ccc3ncc(Br)cc3c2)C1C(F)(F)F` (stereo not shown) [compound 423], in series [1] (setting [2]), the “log P” value is 3.71[a]. For the same compound, the “% of efficacy (protection)” value stood at 83% in the series with Alternaria brassicae and 78% with Puccinia recondita.
With `CC(C)NC(=O)C1(C(F)F)CC(c2ccc3ncc(Br)cc3c2)=NO1` (stereo not shown) [compound 480], the “% of efficacy (protection)” value came to 90% in the series on Puccinia recondita and 83% in the series on Uromyces appendiculatus.
In the case of `C#Cc1cnc2ccc(C3=NOC(OC)(C(=O)NC4CC4)C3)cc2c1` (stereo not shown) [compound 504], the “log P” value in series [1] (setting [2]) is 2.08[a]. Further, the “% of efficacy (protection)” value in the series with Botrytis cinerea was determined as 99%; with Puccinia recondita it was 72%; in the series on Septoria tritici it was 100%; in the series with Sphaerotheca fuliginea it was 100%.
As for `C#Cc1cnc2ccc(C3=NOC(C)(C(=O)NCc4ccsc4)C3)cc2c1` (stereo not shown) [compound 515], in series [1] (setting [3]), the “log P” value is 2.71[a]. Moreover, the “% of efficacy (protection)” value is 100% in the series with Botrytis cinerea, 97% in the series with Septoria tritici, 93% in the series on Sphaerotheca fuliginea and 91% in the series on Uromyces appendiculatus.
As to `CSC1(C(=O)NC(C)C)CC(c2ccc3ncc(Br)cc3c2)=NO1` (stereo not shown) [compound 530], the “log P” value in series [1] (setting [3]) was 2.88[a]. Moreover, the figures for the “% of efficacy (protection)” value in the series with Botrytis cinerea and in the series with Puccinia recondita were 100% and 79%, respectively.
For `C#Cc1cnc2c(C)cc(C3=NOC(C)(C(=O)NCC4COC(C)(C)O4)C3)cc2c1` (stereo not shown) [compound 536], the “log P” value in series [1] (setting [3]) was 2.98[a]. Also, the “% of efficacy (protection)” value with Botrytis cinerea is 100%; in the series with Puccinia recondita, 72%; in the series on Septoria tritici it was 100%; in the series on Sphaerotheca fuliginea it was 100%.
For `CCCn1cc(CNC(=O)C2(OC)CC(c3cc(Cl)c4ncc(Br)cc4c3)=NO2)c(C)n1` (stereo not shown) [compound 567], the “log P” value in series [1] (setting [3]) is 3.08[a]. Besides, the “% of efficacy (protection)” value in the series with Botrytis cinerea came to 100%; in the series with Puccinia recondita, 75%; in the series on Septoria tritici, 100%; with Sphaerotheca fuliginea, 100%.
For the compound `C=CC1(C(=O)NCc2cn(CC)nc2C)CC(c2ccc3ncc(Br)cc3c2)=NO1` (stereo not shown) [compound 599], the “log P” value in series [1] (setting [3]) was 2.61[a]. Also, the “% of efficacy (protection)” value is listed as 100% with Botrytis cinerea; 85% in the series with Phytophthora infestans; 88% with Puccinia recondita; 100% in the series on Septoria tritici; 100% in the series with Sphaerotheca fuliginea.
Take `CCn1cc(CNC(=O)C2(C(F)F)CC(c3ccc4ncc(I)cc4c3)=NO2)c(C)n1` (stereo not shown) [compound 617]: in series [1] (setting [3]), the “log P” value is 2.73[a]. In addition, the “% of efficacy (protection)” value in the series on Botrytis cinerea is 95%; in the series with Puccinia recondita it was 71%; in the series with Sphaerotheca fuliginea, 100%.
In the case of `C#Cc1cnc2ccc(C3=NOC(C=C)(C(=O)NCc4cn(CC)nc4C)C3)cc2c1` (stereo not shown) [compound 724], the “log P” value in series [1] (HPLC on reversed phase columns, method [a]: pH 2.7, 0.1% formic acid in water and acetonitrile, linear gradient 10% to 95% acetonitrile) was 2.37[a]. For the same compound, the “% of efficacy (protection)” value is 98% in the series on Botrytis cinerea; 100% with Phytophthora infestans; 71% in the series with Puccinia recondita; 100% with Septoria tritici; 100% with Sphaerotheca fuliginea.
